Bridge positions count the residues as written; N and C are the ends. Square brackets hold non-standard residues; d marks the D form. Peptide text beside a SMILES is read from it. Sec = N[C@@H](C[SeH])C(=O)O
Key:
[1] = Circular dichroism analysis, percent α-helicity; type: physicochemical; details: 10 mM phosphate buffer pH 7, SDS; for % α helicity: 10-30 μM peptide, 2 h folding
Experimental: Following synthesis of the calcitonin analogues, the helicity of the calcitonin analogues was assessed by circular dichroism analysis. Far ultraviolet spectra (FIG. 6) were obtained from 195-260 nm on J-180 spectropolarimeter (Jasco) using 10-30 μM of sCT and all analogues in 10 mM phosphate buffer pH 7 and in the presence of sodium dodecyl sulphate (SDS), which were left for 2 h to allow folding. Each spectrum represents the average of 3 scans, and the mean residue ellipticity (θMRE) was calculated according to the following equation: […]
Percentage helicity of peptides as presented in Table 2 was calculated according to the following equation (Sommese, et al. 2010): […]
where n is the number of amino acids in the peptide.

[2] = Degradation in simulated gastric fluid (SGF); type: in vitro ADME; details: pH 1.3, 37 °C; for half-life: simulated gastric fluid, pH 1.3, pepsin 0.2 mg/mL stock, read-out: SGF t1/2
Experimental: sCT and its analogues were evaluated for their degradation in simulated gastric fluid (SGF). The stock solution of each analogue was prepared by dissolving 2 mg of the peptide in 1 mL water. The stock solution of pepsin enzyme was prepared by dissolving 5 mg of pepsin in 5 mL of 10 mM HCl (1 mg/mL), and then was diluted to a 0.2 mg/mL with 10 mM HCl. 7 For degradation, 34 μL of pepsin (0.2 mg/mL) was added to 100 μL of peptide (2 mg/mL) at pH 1.3 and the reaction incubated at 37° C. To monitor the degradation, 10 μL of the reaction aliquots were taken and quenched with 10 μL of 10 mM NaOH every 30 min for several hours and analyzed by HPLC using XSelect C18 column ([…], 130 A, 4.6×150 mm) with a gradient of 5-70% of 0.1% TFA in MeCN over 20 min with monitoring at 220 nm.

[3] = target: T1, calcitonin receptor (CTR) (Homo sapiens, UniProt P30988); test: Ca^2+ concentration assay, HEK293 CALCR-HiTSeeker cell line; type: cell-based; set-up: expressed in transfected cells; details: HEK293 CALCR-HiTSeeker cells; for EC50: read-out: Ca^2+ EC50
T1 sequence (P30988 25-474): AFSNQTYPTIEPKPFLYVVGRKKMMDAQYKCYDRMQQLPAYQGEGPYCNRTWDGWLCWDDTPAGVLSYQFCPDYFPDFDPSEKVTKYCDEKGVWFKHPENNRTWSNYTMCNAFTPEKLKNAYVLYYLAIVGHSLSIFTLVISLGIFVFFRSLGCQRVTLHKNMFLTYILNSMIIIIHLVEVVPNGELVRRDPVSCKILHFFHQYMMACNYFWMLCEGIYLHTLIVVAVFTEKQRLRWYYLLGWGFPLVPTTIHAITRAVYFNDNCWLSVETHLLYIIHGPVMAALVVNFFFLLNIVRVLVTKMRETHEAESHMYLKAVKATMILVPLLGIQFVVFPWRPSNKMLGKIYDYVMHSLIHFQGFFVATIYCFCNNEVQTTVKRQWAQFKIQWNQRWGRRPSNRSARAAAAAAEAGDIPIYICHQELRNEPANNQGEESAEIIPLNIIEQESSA

[4] = target: T1, calcitonin receptor (CTR); test: cAMP accumulation assay, U2OS Red cAMPNomad-CALCR cell line; type: cell-based; set-up: expressed in transfected cells; host or cells: U2OS Red cAMPNomad-CALCR; details: U2OS Red cAMPNomad-CALCR cells; for EC50: overnight incubation, read-out: cAMP EC50
[5] = system: human calcitonin receptor (hCTR); details: Potts Jr., 1992; cited from earlier work
[6] = system: vertebral fracture / acute back pain; details: cited from earlier work
[7] = Degradation in simulated intestinal fluid (SIF); details: simulated intestinal fluid, pH 6.8, SIF t1/2, pancreatin 2 mg/mL stock, pH 6.8, 37 °C

SGF t1/2 ([2]; pepsin 0.2 mg/mL stock) [min]	Ca^2+ EC50 / efficacy [3]	half-life [7] [min]	Compound	helicity retained following cyclization [1]	% α helicity [1] [%]	half-life [2] [min]	EC50 [3] [nM]	cAMP EC50 / potency [4]	EC50 [4] [nM]	affinity for hCTR [5]	potency [5]	side effects of parenteral sCT ([6]; intra-muscular and subcutaneous injections)	vertebral fracture recurrence and pain relief ([6]; Chesnut III, et al., 2000)
			CC(C)C[C@H](NC(=O)[C@H](CCCCN)NC(=O)CNC(=O)[C@H](CC(C)C)NC(=O)[C@@H](NC(=O)[C@@H]1C[Se][Se]C[C@H](N)C(=O)N[C@@H](CO)C(=O)N[C@@H](CC(N)=O)C(=O)N[C@@H](CC(C)C)C(=O)N[C@@H](CO)C(=O)N[C@@H]([C@@H](C)O)C(=O)N1)C(C)C)C(=O)N[C@@H](CO)C(=O)N[C@@H](CCC(N)=O)C(=O)N[C@@H](CCC(=O)O)C(=O)N[C@@H](CC(C)C)C(=O)N[C@@H](Cc1c[nH]cn1)C(=O)N[C@@H](CCCCN)C(=O)N[C@@H](CC(C)C)C(=O)N[C@@H](CCC(N)=O)C(=O)N[C@H](C(=O)N[C@@H](Cc1ccc(O)cc1)C(=O)N1CCC[C@H]1C(=O)N[C@@H](CCCNC(=N)N)C(=O)N[C@H](C(=O)N[C@@H](CC(N)=O)C(=O)N[C@H](C(=O)NCC(=O)N[C@@H](CO)C(=O)NCC(=O)N[C@H](C(=O)N1CCC[C@H]1C(N)=O)[C@@H](C)O)[C@@H](C)O)[C@@H](C)O)[C@@H](C)O [Se-CT] (H-[Sec]SNLST[Sec]VLGKLSQELHKLQTYPRTNTGSGTP-NH2; diselenide 1-7)	retain the high degree of helicity	99.2	32.6 ± 0.5	113 ± 18.3	EC50 in the nanomolar range	82.7 ± 16.5				
35.6 ± 0.1	similar	7.1 ± 0.7	CC(C)C[C@H](NC(=O)[C@H](CCCCN)NC(=O)CNC(=O)[C@H](CC(C)C)NC(=O)[C@@H](NC(=O)[C@@H]1CSSC[C@H](N)C(=O)N[C@@H](CO)C(=O)N[C@@H](CC(N)=O)C(=O)N[C@@H](CC(C)C)C(=O)N[C@@H](CO)C(=O)N[C@@H]([C@@H](C)O)C(=O)N1)C(C)C)C(=O)N[C@@H](CO)C(=O)N[C@@H](CCC(N)=O)C(=O)N[C@@H](CCC(=O)O)C(=O)N[C@@H](CC(C)C)C(=O)N[C@@H](Cc1c[nH]cn1)C(=O)N[C@@H](CCCCN)C(=O)N[C@@H](CC(C)C)C(=O)N[C@@H](CCC(N)=O)C(=O)N[C@H](C(=O)N[C@@H](Cc1ccc(O)cc1)C(=O)N1CCC[C@H]1C(=O)N[C@@H](CCCNC(=N)N)C(=O)N[C@H](C(=O)N[C@@H](CC(N)=O)C(=O)N[C@H](C(=O)NCC(=O)N[C@@H](CO)C(=O)NCC(=O)N[C@H](C(=O)N1CCC[C@H]1C(N)=O)[C@@H](C)O)[C@@H](C)O)[C@@H](C)O)[C@@H](C)O [sCT, reference compound]		98.6	35	87 ± 17.5	EC50 in the nanomolar range	13.5 ± 4.5	highest affinity for the human calcitonin receptor (hCTR)	highest potency	gastrointestinal (GI) disturbances and injection site reactions	
			calcitonin										reduces the risk of vertebral fracture recurrence and provides pain relief for acute back pain caused by vertebral fractures

— patent US20260308222A1, “STABILIZED ANALOGUES OF CALCITONIN” (YISSUM RESEARCH DEVELOPMENT COMPANY OF THE HEBREW …, priority 2024, published 2026)
